Measured values reported in patent US6762052B1, “DNA sequence encoding flavin-containing monooxygenase” (priority 1993, dated 2004).
Like-named read-outs stand apart in the source and are kept apart here. Values belong to the compound of their own block, whether it stands above or below them.

Key:
[1] = target: T1, adult human liver flavin-containing monooxygenase (form 3) (Homo sapiens, UniProt P31513, E158K); test: N- and S-oxygenation by cDNA-expressed HLFMO 3 (solubilized protein from E. coli transformed with pTrcHLFMO 3), HPLC; conditions: for Vmax, Expressed HLFMO / Km: N- or S-oxide formation, for the 4-bromophenyl-1,3-oxathiolanes formation of the trans S-oxide; for Km: read-out: Km, Expressed HLFMO
T1 sequence (P31513 1-532 E158K): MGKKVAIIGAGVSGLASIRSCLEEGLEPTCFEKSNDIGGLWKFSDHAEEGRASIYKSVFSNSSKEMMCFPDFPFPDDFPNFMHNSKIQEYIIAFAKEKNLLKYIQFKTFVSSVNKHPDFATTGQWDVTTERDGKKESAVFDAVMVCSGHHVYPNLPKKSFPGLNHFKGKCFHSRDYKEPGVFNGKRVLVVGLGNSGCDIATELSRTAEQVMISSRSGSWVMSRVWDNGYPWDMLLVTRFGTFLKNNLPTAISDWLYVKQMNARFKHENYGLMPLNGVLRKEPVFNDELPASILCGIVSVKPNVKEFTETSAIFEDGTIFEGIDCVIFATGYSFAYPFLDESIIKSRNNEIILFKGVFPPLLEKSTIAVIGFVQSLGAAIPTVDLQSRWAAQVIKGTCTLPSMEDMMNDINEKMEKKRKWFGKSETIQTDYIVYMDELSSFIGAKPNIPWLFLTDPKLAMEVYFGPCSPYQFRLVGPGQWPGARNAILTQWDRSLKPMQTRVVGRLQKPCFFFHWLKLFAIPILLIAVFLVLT
Protocol: (§1) In all cases examined, product formation was directly determined by HPLC analysis of organic extracts.
Competent NM522 Escherichia coli cells were transformed with the pTrc HLFMO 3 plasmid. […] After inoculation with a fresh overnight culture of NM522 containing pTrcHLFMO 3, the culture was grown at 37° C. until Abs600 was approximately 0.5 absorbance units. Finally, IPTG (0.8 mM) was added to the culture to induce expression of protein and the culture was left to grow overnight at 37° C.
The bacterial pellet was resuspended in 5 volumes of 50 mM potassium phosphate buffer (pH 8.4) containing 1% Triton X-100, 0.1% L-, α-phosphatidylcholine (L-α-lecithin) from egg yolk, 500 μM PMSF, and 1 mM EDTA. The mixture was sonicated and then centrifuged to remove cellular debris. As a control, bacterial lysate extracts from IPTG-induced pTrc99A-transformed NM522 cells (i.e., pTrc99A without the HLFMO 3 cDNA insert) were prepared under the same conditions.
(§2) Human liver samples were obtained from the Department of Surgery (UCSF) and with a protocol from the Medical College of Wisconsin (S. Wrighton).
(§3) A typical incubation mixture (final volume 0.25 ml) contained hepatic microsomes (0.4 mg of protein) or bacterial lysate (2.3 mg of protein), NADP^+ (0.5 mM), glucose-6-phosphate (2.0 mM), glucose-6-phosphate dehydrogenase (1 IU), DETAPAC (0.8 mM) and potassium phosphate buffer (50 mM, pH 8.4). Reactions were initiated by the addition of substrate and terminated at designated times by the addition of three volumes of cold dichloromethane, mixed thoroughly and centrifuged to separate the aqueous and organic fractions. N- and S-oxide metabolic products in the resulting organic extracts were separated and quantified by HPLC. […] Thiobenzamide and thiobenzamide S-oxide were quantified with this same, HPLC system employing a mobile phase of methanol/acetonitrile/60% perchloric acid (20:80:0.016, v/v) which gave retention volumes of 2.7 and 7.0 ml, respectively. […] The major metabolites formed in the incubations were also subjected to mass spectral analysis after extraction of isolated HPLC fractions.
(§4) RPLC of the S-oxide diastereomers with a Chiracel OT chiral analytical column (25 cm×0.15 cm inner diameter, Daicel Chemical Co., New York, N.Y.) was accomplished with a Beckman system, Kratos UV detector (240 nm) and a Hewlett Packard Integrator. […] Quantification was accomplished by comparing integrated HPLC peak areas after taking into account the difference in the extinction coefficients at 240 nm. Likewise, the cis and trans S-oxide diasteromers of (+)- and (−)-2-methyl-1,-benzodithiole were separated with a Chiracel OT chiral analytical column.

Human Liver Microsomes = test: in vitro
Protocol: as §1, §2, §3, §4

Compound: CN(C)CCCN1c2ccccc2Sc2ccc(Cl)cc21 [Chlorpromazine, chlorpromazine]
- substrate activity for human liver microsomes and expressed HLFMO 3, in words [1]: detectable
- N-oxide formation, Expressed HFLMO ([1]; human, 0.1 mM, pH 8.4): 10.2 ± 1.2 pmol/min/mg of protein
- N-oxide formation, Human Liver Microsomes (Human Liver Microsomes; human, 0.1 mM, pH 8.4): 58.9 ± 7.4 pmol/min/mg of protein
- S-oxide formation, Human Liver Microsomes (Human Liver Microsomes; human, 0.1 mM, pH 8.4): 29.3 ± 3.7 pmol/min/mg of protein

Compound: CN(C)CCCCCCN1c2ccccc2Sc2ccc(C(F)(F)F)cc21 [Compound 6]
- substrate activity for human liver microsomes and expressed HLFMO 3, in words ([1]; human liver microsomes and solubilized protein from E. coli transformed with pTrcHLFMO 3): better substrates
- pH-optimum for tertiary amine N-oxygenation ([1]; microsomal protein and expressed HLFMO 3 gave virtually identical pH-rate profiles): approximately 10
- midpoint of the pH-rate profile of N-oxygenation ([1]; microsomes and expressed HLFMO 3): ~9.5

Compound: (+)-4-bromophenyl-1,3-oxathiolane
- cis S-oxide, % of S-oxide product, Expressed HLFMO [1]: 38.5%
- substrate activity for human liver microsomes and expressed HLFMO 3, in words [1]: excellent substrates
- trans S-oxide formation rate, Expressed HLFMO [1]: 0.8 ± 0.2 nmol/min/mg of protein
- trans S-oxide, % of S-oxide product, Expressed HLFMO [1]: 61.4%
- Vmax, Expressed HLFMO [1]: 0.180 nmol/min/mg of protein
- Km [1]: 142 µM
- Km (Human Liver Microsomes): 50 µM
- Vmax, Human Liver Microsomes (Human Liver Microsomes): 2.87 nmol/min/mg of protein
- cis S-oxide formation rate, Human Liver Microsomes (Human Liver Microsomes): (5.3 ± 0.9) nmol/min/mg of protein
- cis S-oxide, % of S-oxide product, Human Liver Microsomes (Human Liver Microsomes): 40.4%
- trans S-oxide formation rate, Human Liver Microsomes (Human Liver Microsomes): 7.8 ± 1.7 nmol/min/mg of protein
- trans S-oxide, % of S-oxide product, Human Liver Microsomes (Human Liver Microsomes): 59.5%

Second part, the compound after the results:

- pH of maximum S-oxygenase activity ([1]; in the presence of microsomes and expressed HLFMO 3): ~8.5
Compound: 4-bromophenyl-1,3-oxathiolane

- S-oxide product cis (+)-(1R,2S), % Diastereomer ([1]; human, 0.5 mM, pH 8.4): 48.6%
- S-oxide product cis (+)-(1R,2S), amount formed ([1]; human, 0.5 mM, pH 8.4): 54 ± 22 pmol/min/mg of protein
- S-oxide product cis (-)-(1S,2R), % Diastereomer ([1]; human, 0.5 mM, pH 8.4): 19.8%
- S-oxide product cis (-)-(1S,2R), amount formed ([1]; human, 0.5 mM, pH 8.4): 22 ± 2 pmol/min/mg of protein
- S-oxide product trans (+)-(1R,2R), % Diastereomer ([1]; human, 0.5 mM, pH 8.4): 31.5%
- S-oxide product trans (+)-(1R,2R), amount formed ([1]; human, 0.5 mM, pH 8.4): 35 ± 27 pmol/min/mg of protein
- S-oxide product cis (+)-(1R,2S), % Diastereomer (Human Liver Microsomes; human, 0.5 mM, pH 8.4): 28.2%
- S-oxide product cis (+)-(1R,2S), amount formed (Human Liver Microsomes; human, 0.5 mM, pH 8.4): 176 ± 34 pmol/min/mg of protein
- S-oxide product cis (-)-(1S,2R), % Diastereomer (Human Liver Microsomes; human, 0.5 mM, pH 8.4): 12.3%
- S-oxide product cis (-)-(1S,2R), amount formed (Human Liver Microsomes; human, 0.5 mM, pH 8.4): 77 ± 27 pmol/min/mg of protein
- S-oxide product trans (+)-(1R,2R), % Diastereomer (Human Liver Microsomes; human, 0.5 mM, pH 8.4): 59.5%
- S-oxide product trans (+)-(1R,2R), amount formed (Human Liver Microsomes; human, 0.5 mM, pH 8.4): 372 ± 35 pmol/min/mg of protein
Compound: CC1Sc2ccccc2S1 [2-Methyl-1,3-Benzodithiole, 2-Methyl-1,3-benzodithiole]

- substrate activity for human liver microsomes and expressed HLFMO 3, in words [1]: excellent substrates
- trans S-oxide formation rate, Expressed HLFMO [1]: 0.7 ± 0.1 nmol/min/mg of protein
- trans S-oxide, % of S-oxide product, Expressed HLFMO [1]: 100%
- Vmax, Expressed HLFMO [1]: 2.94 nmol/min/mg of protein
- Km [1]: 311 µM
- Km (Human Liver Microsomes): 166 µM
- Vmax, Human Liver Microsomes (Human Liver Microsomes): 5.2 nmol/min/mg of protein
- trans S-oxide formation rate, Human Liver Microsomes (Human Liver Microsomes): 2.4 ± 0.9 nmol/min/mg of protein
- trans S-oxide, % of S-oxide product, Human Liver Microsomes (Human Liver Microsomes): 100%
Compound: (−)-4-bromophenyl-1,3-oxathiolane [(-)-4-Bromophenyl-1,3-oxathiolane]
